In ChEMBL document CHEMBL5120980, “Stereoisomers of an Aryl Pyrazole Glucocorticoid Receptor Agonist Scaffold Elicit Differing Anti-inflammatory Responses” (ACS Med Chem Lett, 2022):

Key:
Glucocorticoid receptor [1] = biological target: T1, Glucocorticoid receptor (Rattus norvegicus, UniProt P06536); assay: Agonist activity at glucocorticoid receptor in rat INS-1 832/13 cells transfected with CCL2-promoter luciferase plasmid construct assessed as reduction in IL-1 beta induced inflammation by luciferase reporter gene assay; format: cell-based
T1 sequence (P06536 whole entry): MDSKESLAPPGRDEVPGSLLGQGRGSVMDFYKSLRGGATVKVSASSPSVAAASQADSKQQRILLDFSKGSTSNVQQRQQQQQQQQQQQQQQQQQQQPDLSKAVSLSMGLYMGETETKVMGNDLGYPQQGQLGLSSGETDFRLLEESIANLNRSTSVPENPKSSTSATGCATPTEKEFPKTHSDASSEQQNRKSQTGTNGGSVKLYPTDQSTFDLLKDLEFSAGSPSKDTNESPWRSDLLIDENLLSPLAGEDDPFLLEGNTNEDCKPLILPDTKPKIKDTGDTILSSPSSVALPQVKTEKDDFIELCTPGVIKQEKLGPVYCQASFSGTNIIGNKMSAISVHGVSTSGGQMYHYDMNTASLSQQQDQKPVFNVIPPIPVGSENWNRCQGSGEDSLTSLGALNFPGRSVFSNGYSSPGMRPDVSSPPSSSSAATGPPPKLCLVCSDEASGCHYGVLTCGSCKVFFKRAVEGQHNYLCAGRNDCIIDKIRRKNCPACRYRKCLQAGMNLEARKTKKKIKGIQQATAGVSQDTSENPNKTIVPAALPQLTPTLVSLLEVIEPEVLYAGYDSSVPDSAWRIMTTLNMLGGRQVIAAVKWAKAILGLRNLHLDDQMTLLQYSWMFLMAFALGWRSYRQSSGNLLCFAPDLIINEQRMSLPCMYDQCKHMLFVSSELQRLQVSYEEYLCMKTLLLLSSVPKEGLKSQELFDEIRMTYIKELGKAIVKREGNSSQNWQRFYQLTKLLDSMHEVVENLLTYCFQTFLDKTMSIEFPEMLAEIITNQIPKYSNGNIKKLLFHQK

Glucocorticoid receptor [2] = biological target: T1, Glucocorticoid receptor; assay: Agonist activity at glucocorticoid receptor in rat INS-1 832/13 cells transfected with 3XGRE-promoter luciferase plasmid construct assessed as induction of receptor transactivation by luciferase reporter gene assay; format: cell-based

SMILES	IC50 (Glucocorticoid receptor [1])	EC50 (Glucocorticoid receptor [2])
C[C@@H](O)[C@H]1CCCC2=Cc3c(cnn3-c3ccc(F)cc3)C[C@@]21C	0.316 nM	31.6 nM
C[C@]12Cc3cnn(-c4ccc(F)cc4)c3C=C1CCC[C@@H]2[C@H](O)c1ccccc1	3980 nM	25.1 nM
CC[C@H](O)[C@H]1CCCC2=Cc3c(cnn3-c3ccc(F)cc3)C[C@@]21C	20 nM	10000 nM
C[C@]12Cc3cnn(-c4ccc(F)cc4)c3C=C1CCC[C@@H]2CO	5.01 nM	31.6 nM
C[C@]12Cc3cnn(-c4ccc(F)cc4)c3C=C1CCC[C@@H]2[C@@H](O)C1CCCC1	398 nM	3160 nM
CC[C@@H](O)[C@H]1CCCC2=Cc3c(cnn3-c3ccc(F)cc3)C[C@@]21C	15.8 nM	2510 nM
C[C@]12Cc3cnn(-c4ccc(F)cc4)c3C=C1CCC[C@@H]2[C@H](O)c1c(F)c(F)c(F)c(F)c1F	25.1 nM	2000 nM
C[C@]12Cc3cnn(-c4ccc(F)cc4)c3C=C1CCC[C@@H]2[C@@H](O)C1CC1	31.6 nM	1000 nM
C[C@]12Cc3cnn(-c4ccc(F)cc4)c3C=C1CCC[C@@H]2[C@H](O)C1CC1	2000 nM	0.501 nM

More lines, in order of falling IC50 (Glucocorticoid receptor [1]), values ahead:

IC50 (Glucocorticoid receptor [1])	EC50 (Glucocorticoid receptor [2])	SMILES
158 nM	1580 nM	CC(C)[C@@H](O)[C@H]1CCCC2=Cc3c(cnn3-c3ccc(F)cc3)C[C@@]21C
63.1 nM	2510 nM	C[C@H](O)[C@H]1CCCC2=Cc3c(cnn3-c3ccc(F)cc3)C[C@@]21C
31.6 nM	251 nM	C[C@]12Cc3cnn(-c4ccc(F)cc4)c3C=C1CCC[C@@H]2[C@@H](O)c1c(F)c(F)c(F)c(F)c1F
20 nM	63.1 nM	C[C@]12Cc3cnn(-c4ccc(F)cc4)c3C=C1CCC[C@@H]2[C@@H](O)c1ccccc1
0.631 nM	1580 nM	CC(C)[C@H](O)[C@H]1CCCC2=Cc3c(cnn3-c3ccc(F)cc3)C[C@@]21C
